System: hepatocellular carcinoma cell line Hub-7
Test: Cell proliferation assay (CELL-TITER GLO cell viability)
Assay type: cell-based
Settings: 24 h, Hub-7 cells, 24 h incubation, read-out: Inhibition of Cell Proliferation EC50
Outline: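 […] cells (4,000/well) seeded overnight, then exposed 24 h to compound from 10 μM in 3-fold serial dilutions. Viability read by CELL-TITER GLO luminescence; EC50 values derived.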

Row | SMILES | EC50
1 | O=C(CCl)N(c1cccc2nsnc12)C1(C(=O)NCCc2ccccc2)CCOCC1 [C29, 4-(N-(Benzo[c][1,2,5]thiadiazol-4-yl)-2-chloroacetamido)-N-phenethyltetrahydro-2H-pyran-4-carboxamide] | 0.5 to 2 µM
2 | Cn1ncc2cc(N(C(=O)C3CO3)C3(C(=O)NCc4ccccc4)CCOCC3)ccc21 (stereo not shown) [C30, N-Benzyl-4-(N-(1-methyl-1H-indazol-5-yl)oxirane-2-carboxamido)tetrahydro-2H-pyran-4-carboxamide] | > 10 µM
3 | C#CC(=O)N(c1cccc(Cl)c1)C(C(=O)NCc1ccccc1)c1cccc(N)c1 (stereo not shown) [A33, N-(1-(3-Aminophenyl)-2-(benzylamino)-2-oxoethyl)-N-(3-chlorophenyl)-propiolamide] | ≤ 0.1 µM
4 | Cn1ncc2cc(N(C(=O)C(F)F)C3(C(=O)NCc4ccccc4)CCOCC3)ccc21 [D1, N-Benzyl-4-(2,2-difluoro-N-(1-methyl-1H-indazol-5-yl)acetamido)tetrahydro-2H-pyran-4-carboxamide] | > 10 µM
5 | C#CC(=O)N(c1cc(Cl)ccc1F)C(C(=O)NCc1ccccc1)c1cccc(N)c1 (stereo not shown) [A40, N-(1-(3-Aminophenyl)-2-(benzylamino)-2-oxoethyl)-N-(5-chloro-2-fluorophenyl)-propiolamide] | ≤ 0.1 µM
6 | C#CC(=O)N(c1cccc(Cl)c1)C1(C(=O)NCC(=O)NCCO)CCOCC1 [A186, 4-(N-(3-Chlorophenyl)propiolamido)-N-(2-((2-hydroxyethyl)amino)-2-oxoethyl)-tetrahydro-2H-pyran-4-carboxamide] | 2 to 10 µM
7 | C#CC(=O)N(c1ccc2c(cnn2C)c1)C1(C(=O)NCc2ccccc2)CCOCC1 [A162, N-Benzyl-4-(N-(1-methyl-1H-indazol-5-yl)propiolamido)tetrahydro-2H-pyran-4-carboxamide] | ≤ 0.1 µM
8 | C#CC(=O)N(c1cccc(Cl)c1)C1(C(=O)NCc2cccc(Cl)c2)CCOCC1 [A182, N-(3-Chlorobenzyl)-4-(N-(3-chlorophenyl)propiolamido)tetrahydro-2H-pyran-4-carboxamide] | ≤ 0.1 µM
9 | C#CC(=O)N(c1cccc(Cl)c1)C(C(=O)NCc1ccccc1)c1ccc(F)cc1 (stereo not shown) [A87, N-(2-(Benzylamino)-1-(4-fluorophenyl)-2-oxoethyl)-N-(3-chlorophenyl)-propiolamide] | ≤ 0.1 µM
10 | Cn1ncc2cc(N(C(=O)C#CCO)C3(C(=O)NCc4ccccc4)CCOCC3)ccc21 [A131, N-Benzyl-4-(4-hydroxy-N-(1-methyl-1H-indazol-5-yl)but-2-ynamido)tetrahydro-2H-pyran-4-carboxamide] | > 10 µM
11 | C#CC(=O)N(c1ccc(NC(C)=O)cc1)C(C(=O)NC(C)(C)C)c1ccc(N)cc1 (stereo not shown) [A13, N-(4-Acetamidophenyl)-N-(1-(4-aminophenyl)-2-(tert-butylamino)-2-oxoethyl)-propiolamide] | 2 to 10 µM
12 | C#CC(=O)N(c1ccc2c(cnn2C)c1)C1(C(=O)NCc2ccccc2)CCCC(=O)C1 (stereo not shown) [A165, N-Benzyl-1-(N-(1-methyl-1H-indazol-5-yl)propiolamido)-3-oxocyclohexane-1-carboxamide] | 0.1 to 0.5 µM
13 | CN(C)C/C=C/C(=O)N(c1ccc2c(cnn2C)c1)C1(C(=O)NCc2ccccc2)CCOCC1 [B10, (E)-N-Benzyl-4-(4-(dimethylamino)-N-(1-methyl-1H-indazol-5-yl)but-2-enamido)tetrahydro-2H-pyran-4-carboxamide] | > 10 µM
14 | C=CC(=O)N(C1CCC1)C1(C(=O)NCc2ccccc2)CCOCC1 [B8, N-Benzyl-4-(N-cyclobutylacrylamido)tetrahydro-2H-pyran-4-carboxamide] | > 10 µM
15 | COc1cccc(N(C(=O)CCl)C(C(=O)NCCc2ccccc2)c2ccc([N+](=O)[O-])cc2)c1 (stereo not shown) [C10, 2-Chloro-N-(3-methoxyphenyl)-N-(1-(4-nitrophenyl)-2-oxo-2-(phenethylamino)-ethyl)acetamide] | 0.1 to 0.5 µM
16 | C#CC(=O)N(c1ccc(OC)cc1OC)C1(C(=O)NCc2ccccc2)CCOCC1 [A157, N-Benzyl-4-(N-(2,4-dimethoxyphenyl)propiolamido)tetrahydro-2H-pyran-4-carboxamide] | ≤ 0.1 µM
17 | C#CC(=O)N(CCc1ccccc1)C1(C(=O)NCc2ccccc2)CCCC(C(=O)OC)C1 (stereo not shown) [A166, Methyl 3-(benzylcarbamoyl)-3-(N-phenethylpropiolamido)cyclohexane-1-carboxylate] | 0.1 to 0.5 µM
18 | C#CC(=O)N(c1ccc(OC)c(Cl)c1)C(C(=O)NC(C)(C)C)c1cccc(N)c1 (stereo not shown) [A21, N-(1-(3-Aminophenyl)-2-(tert-butylamino)-2-oxoethyl)-N-(3-chloro-4-methoxyphenyl)propiolamide] | 0.1 to 0.5 µM
19 | C=C(F)C(=O)N(c1ccc(OC)c(Cl)c1)C(C(=O)NCc1ccccc1)c1cccc(N)c1 (stereo not shown) [B4, N-(1-(3-Aminophenyl)-2-(benzylamino)-2-oxoethyl)-N-(3-chloro-4-methoxy-phenyl)-2-fluoroacrylamide] | > 10 µM
20 | C#CC(=O)N(c1cccc(Cl)c1)C(C(=O)NCc1ccccc1)c1cccc(OCC(=O)OC)c1 (stereo not shown) [A83, Methyl 2-(3-(2-(benzylamino)-1-(N-(3-chlorophenyl)propiolamido)-2-oxoethyl)-phenoxy)acetate] | 0.1 to 0.5 µM

Row | SMILES | EC50
21 | C#CC(=O)N(c1ccc(O)cc1)C(C(=O)NCc1ccccc1)c1ccc(N)cc1 (stereo not shown) [A64, N-(1-(4-Aminophenyl)-2-(benzylamino)-2-oxoethyl)-N-(4-hydroxyphenyl)-propiolamide] | 2 to 10 µM
22 | C#CC(=O)N(c1cccc(Cl)c1)C(C(=O)NCc1ccc(C#N)cc1)c1ccccc1 (stereo not shown) [A114, N-(3-chlorophenyl)-N-(2-((4-cyanobenzyl)amino)-2-oxo-1-phenylethyl)propiolamide] | ≤ 0.1 µM
23 | C#CC(=O)N(Cc1cccc(O)c1)C1(C(=O)NCc2ccccc2)CCCC(C(=O)OC)C1 (stereo not shown) [A167, Methyl 3-(benzylcarbamoyl)-3-(N-(3-hydroxybenzyl)propiolamido)cyclohexane-1-carboxylate] | 0.1 to 0.5 µM
24 | C#CC(=O)N(c1cccc(Cl)c1)C1(C(=O)NCc2ccccc2)CCC(=O)CC1 [A175, N-Benzyl-1-(N-(3-chlorophenyl)propiolamido)-4-oxocyclohexane-1-carboxamide] | ≤ 0.1 µM
25 | C#CC(=O)N(c1ccc2cnn(C)c2c1)C(C(=O)NCc1ccccc1)c1ccccc1 (stereo not shown) [A104, N-(2-(Benzylamino)-2-oxo-1-phenylethyl)-N-(1-methyl-1H-indazol-6-yl)-propiolamide] | ≤ 0.1 µM
26 | C#CC(=O)N(c1ccc(N(C)C)cc1)C1(C(=O)NCc2ccccc2)CCOCC1 [A140, N-Benzyl-4-(N-(4-(dimethylamino)phenyl)propiolamido)tetrahydro-2H-pyran-4-carboxamide] | 0.1 to 0.5 µM
27 | C#CC(=O)N(c1ccc(N)cc1)C(C(=O)NC(C)(C)C)c1cccc(N)c1 (stereo not shown) [A22, N-(4-Aminophenyl)-N-(1-(3-aminophenyl)-2-(tert-butylamino)-2-oxoethyl)-propiolamide] | 2 to 10 µM
28 | CC#CC(=O)N(c1cncc(Cl)c1)C(C(=O)NCc1ccccc1)c1ccccc1 (stereo not shown) [A133, N-(2-(Benzylamino)-2-oxo-1-phenylethyl)-N-(5-chloropyridin-3-yl)but-2-ynamide] | > 10 µM
29 | N#CCC(=O)N(c1cccc(Cl)c1)C1(C(=O)NCc2ccccc2)CCOCC1 [D7, N-Benzyl-4-(N-(3-chlorophenyl)-2-cyanoacetamido)tetrahydro-2H-pyran-4-carboxamide] | > 10 µM
30 | C#CC(=O)N(c1cccc(CO)c1)C(C(=O)NCc1ccccc1)c1ccc(N)cc1 (stereo not shown) [A56, N-(1-(4-Aminophenyl)-2-(benzylamino)-2-oxoethyl)-N-(3-(hydroxymethyl)-phenyl)propiolamide] | 2 to 10 µM
31 | C#CC(=O)N(c1ccc(NS(C)(=O)=O)cc1)C(C(=O)NCc1ccccc1)c1ccc(N)cc1 (stereo not shown) [A71, N-(1-(4-Aminophenyl)-2-(benzylamino)-2-oxoethyl)-N-(4-(methylsulfonamido)-phenyl)propiolamide] | 2 to 10 µM
32 | C#CC(=O)N(c1ccc(S(N)(=O)=O)cc1)C(C(=O)NCc1ccccc1)c1ccc(N)cc1 (stereo not shown) [A68, N-(1-(4-Aminophenyl)-2-(benzylamino)-2-oxoethyl)-N-(4-sulfamoylphenyl)-propiolamide] | > 10 µM
33 | C#CC(=O)N(c1ccc(CO)cc1)C(C(=O)NCc1ccccc1)c1ccc(N)cc1 (stereo not shown) [A67, N-(1-(4-Aminophenyl)-2-(benzylamino)-2-oxoethyl)-N-(4-(hydroxymethyl)-phenyl)propiolamide] | 0.5 to 2 µM
34 | C#CC(=O)N(c1ccc(Cl)cc1)C(C(=O)NC(C)(C)C)c1ccc(N)cc1 (stereo not shown) [A4, N-(1-(4-Aminophenyl)-2-(tert-butylamino)-2-oxoethyl)-N-(4-chlorophenyl)-propiolamide] | 0.1 to 0.5 µM
35 | CC#CC(=O)N(c1ccc2c(cnn2C)c1)C1(C(=O)NCc2ccccc2)CCCOC1 (stereo not shown) [A126, N-Benzyl-3-(N-(1-methyl-1H-indazol-5-yl)but-2-ynamido)tetrahydro-2H-pyran-3-carboxamide] | 2 to 10 µM
36 | C#CC(=O)N(c1cccc(Cl)c1)C(C(=O)NCc1ccccc1)C1CCC(C(=O)OC)CC1 (stereo not shown) [A77, Methyl 4-(2-(benzylamino)-1-(N-(3-chlorophenyl)propiolamido)-2-oxoethyl)-cyclohexane-1-carboxylate] | 0.1 to 0.5 µM
37 | C#CC(=O)N(c1ccc2c(c1)OCO2)C1(C(=O)NCc2ccccc2)CCOCC1 [A151, 4-(N-(Benzo[d][1,3]dioxol-5-yl)propiolamido)-N-benzyltetrahydro-2H-pyran-4-carboxamide] | 0.1 to 0.5 µM
38 | COC(=O)c1cccc(N(C(=O)CCl)C(C(=O)NCCc2ccccc2)c2ccc([N+](=O)[O-])cc2)c1 (stereo not shown) [C7, Methyl-3-(2-chloro-N-(1-(4-nitrophenyl)-2-oxo-2-(phenethylamino)ethyl)-acetamido)benzoate] | 0.1 to 0.5 µM
39 | C#CC(=O)N(c1cccc(F)c1)C(C(=O)NCc1ccccc1)c1ccc(N)cc1 (stereo not shown) [A59, N-(1-(4-Aminophenyl)-2-(benzylamino)-2-oxoethyl)-N-(3-fluorophenyl)-propiolamide] | 0.1 to 0.5 µM

Same assay, conditions: Hub-7 cells, 24 h incubation, read-out: Inhibition of Cell Proliferation EC50

Row | SMILES | EC50
40 | Nc1cccc(N(C(=O)CCl)C(C(=O)NCCc2ccccc2)c2cccs2)c1 (stereo not shown) [C13] | 2 to 10 µM

Source: patent US12516016B2, “GPX4 inhibitors, pharmaceutical compositions thereof, and their use for treating GPX4-mediated diseases” (EUBULUS BIOTHERAPEUTICS (HONG KONG) LIMITED, priority 2020, dated 2026)
